One experiment concerns HIV-1 303B. Put plainly: microbe, parasite or virus in culture. In kind it is cell-based. To be noted: for Combination Indices at 50% HIV Inhibition (Confidence Interval) / Combination Indices at 75% HIV Inhibition (Confidence Interval) / Combination Indices at 90% HIV Inhibition (Confidence Interval): in combination with Example 19, 95% CI in parenthesis. How it is done:
Virus and cell lines. The T-cell line, MT-2, was obtained through the AIDS Research and Reference Reagent Program. MT-2 cells were sub-cultured twice a week in RPMI 1640 medium supplemented with 10% fetal bovine serum, 2 mM L-glutamine, and 10 mM HEPES buffer pH 7.5. The HIV-1303B virus is a molecular clone derived from the NL4-3 strain of HIV-1 that was obtained from the NIH AIDS Research and Reference Reagent Program. For combinations with enfuvirtide, the NL36G virus was used. […] Virus stocks were made by transfecting 293T cells with a proviral DNA clone using LipofectAMINE PLUS (Invitrogen), according to the manufacturer's instructions. Three days post-transfection, virus was harvested and passaged once in MT-2 cells before titration in MT-2 cells.
Chemicals. Example 19, atazanavir, didanosine, stavudine, efavirenz, and enfuvirtide (T-20) were synthesized by Bristol-Myers Squibb using published or known reactions. […] Tenofovir was tested as tenofovir disopoxil fumarate. Zidovudine and zalcitabine were purchased from Sigma, and emtricitabine from Moravek Biochemicals.
Drug Susceptibility and Cytotoxicity Assays. For drug susceptibility assays, MT-2 cells were infected with HIV-1 303B (or NL36G), at an MOI of 0.001, and seeded into 96-well microtiter plates (2.5×10^5 cells/ml) containing serial dilutions of test compounds. […] Each drug ratio consisted of an array of 3-fold serial dilutions, and was performed with eight or more replicas on separate multi-well plates. HIV infected cells were incubated at 37° C. in 5% CO2, and on day five post-infection, the extent of virus replication was measured by determining cell viability using the CellTiter 96 Aqueous Non-Radioactive Cell Proliferation Assay (Promega). […] Cytotoxicity assays were performed in parallel with the combination experiments. Here, uninfected cells were exposed to the same drug combinations, and assayed after five days for cell viability using the MTS assay.
Analysis of Drug Combination Effects. For determination of combination index (CI) values, drugs were diluted in a fixed ratio and multiple ratios were analyzed. The drug serial dilutions spanned a range of concentrations near the EC50 value of each compound, so that equivalent antiviral activities could be compared. The normalized responses from each therapy are fit to the four-parameter logistic model with a common minimum and maximum across all therapies. Conceptually, this equation can be written as
In this equation, Fa stands for “fraction affected,” and represents the fraction of the viral load that has been inactivated. […] The EC50, represented by the Ci in the above equation, is the drug concentration that is expected to reduce the amount of virus by 50%, and the Bi are the parameters that reflects the slope of the concentration-response curve. For this assay, A is the bottom plateau common to all curves, D is the common top plateau, Bj is the “slope” parameter for the jth therapy, and Cj is the concentration that produces an effect equal to the average of A and D for the jth therapy. Therapies 1 and 2 correspond to mono therapies 1 and 2, respectively. Therapies 3, 4, and 5 correspond to the three combination therapies. EC50 values for each drug were determined from the single drug experiments, using the above equation. The equation was fit using a nonlinear regression routine (Proc Nlin) in PC SAS version 8.2 (SAS Institute Inc.).
To assess antiviral effects of different drug combination treatments, combination indices (CIs) were calculated according to Chou and Rideout. The combination index was computed as
In this equation [Dm]1 and [Dm]2 are the concentrations of drugs that would individually produce a specific level of effect, while [D]1 and [D]2 are the concentrations of drugs in combination that would produce the same level of effect.
Theoretically, additivity is implied if the CI is equal to one, synergy if the CI is less than one, and antagonism if the CI is greater than one.

The target in the next experiment is T1, HIV-integrase (Human immunodeficiency virus type 1 group M subtype B, UniProt P12497).
T1 construct: Recombinant integrase (0.26 ng) was incubated with the beads
The experiment is described as follows: HIV-Integrase Inhibition Activity (SPA bead strand-transfer assay). It counts as biochemical. The gist of the method: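 Strand-transfer read-out: CPM from P33-labelled target DNA (0.1 fmol) joined to bead-bound biotin substrate DNA (5 pmole), with EDTA stop at 10 mM final. Integrase (0.26 ng) prebound to streptavidin SPA beads 90 min, 37° C, and washed before adding inhibitor.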

The mark [1] stands for this setting: EC50 ratio Example 19:comparator 1:1.
Setting [2] is: EC50 ratio Example 19:comparator 1:2.5.
The mark [3] stands for this setting: EC50 ratio Example 19:comparator 2.5:1.
The mark [4] stands for this setting: Table 1, read-out: Activity (HIV-integrase inhibition, IC50 class).

Read-outs that look alike come from different tables or passages of the source.

As to `Nc1nc(NC2CC2)c2ncn([C@H]3C=C[C@@H](CO)C3)c2n1` [Abacavir, abacavir], the concentration giving a half-maximal response (EC50) (in general, the midpoint of the concentration-response curve) with HIV-1 303B (Human immunodeficiency virus 1, MT2, 120 h) came to 1040 nM. Further, the “overall antiviral effect of the two-drug combination with Example 19 (in words)” value in the experiment with HIV-1 303B (classification from combination indices and confidence intervals) was “synergistic”. Further, the “Combination Indices at 50% HIV Inhibition (Confidence Interval)” value is 0.68 (0.59, 0.76) in the experiment with HIV-1 303B (setting [1]); 0.87 (0.77, 0.97) in the experiment with HIV-1 303B (setting [2]); 0.86 (0.76, 0.96) with HIV-1 303B (setting [3]). The “Combination Indices at 75% HIV Inhibition (Confidence Interval)” value is given as 0.67 (0.56, 0.79) in the experiment with HIV-1 303B (setting [1]); 0.74 (0.63, 0.85) in the experiment with HIV-1 303B (setting [2]); 0.82 (0.68, 0.96) in the experiment with HIV-1 303B (setting [3]). In addition, the “Combination Indices at 90% HIV Inhibition (Confidence Interval)” value with HIV-1 303B (setting [1]) is on record as 0.67 (0.49, 0.84); in the experiment with HIV-1 303B (setting [2]), 0.63 (0.50, 0.77); with HIV-1 303B (setting [3]), 0.79 (0.58, 0.99).

For `CC1(C)OCCn2c1nc(C(=O)NCc1cccc(Cl)c1F)c(O)c2=O` [Example 266, Pyrimido[2,1-c][1,4]oxazine-2-carboxamide, N-[(3-chloro-2-fluorophenyl)methyl]-4,6,7,9-tetrahydro-3-hydroxy-9,9-dimethyl-4-oxo-], the IC50 on HIV-integrase (setting [4]) was in the range of 2 to 100 nM.

Turning to `CC1(C)OCCn2c1nc(C(=O)NCc1cccc3c1OCCO3)c(O)c2=O` [Example 267, Pyrimido[2,1-c][1,4]oxazine-2-carboxamide, N-[(2,3-dihydro-1,4-benzodioxin-5-yl)methyl]-4,6,7,9-tetrahydro-3-hydroxy-9,9-dimethyl-4-oxo-], the IC50 at HIV-integrase (setting [4]) fell in the range of 2 to 100 nM.

Consider `CC1(C)OCCn2c1nc(C(=O)NCc1cccc3c1OCCCO3)c(O)c2=O` [Example 268, Pyrimido[2,1-c][1,4]oxazine-2-carboxamide, N-[(3,4-dihydro-2H-1,5-benzodioxepin-6-yl)methyl]-4,6,7,9-tetrahydro-3-hydroxy-9,9-dimethyl-4-oxo-], for which, at HIV-integrase (setting [4]), the IC50 fell in the range of 2 to 100 nM.

With `Cc1ccc(C)c(CNC(=O)c2nc3n(c(=O)c2O)CCOC3(C)C)c1` [Example 269, Pyrimido[2,1-c][1,4]oxazine-2-carboxamide, N-[(2,5-dimethylphenyl)methyl]-4,6,7,9-tetrahydro-3-hydroxy-9,9-dimethyl-4-oxo-], the IC50 on HIV-integrase (setting [4]) lay in the range of 2 to 100 nM.

In the case of `CC1(C)OCCn2c1nc(C(=O)NCc1ccc(Cl)cc1Cl)c(O)c2=O` [Example 271, Pyrimido[2,1-c][1,4]oxazine-2-carboxamide, N-[(2,4-dichlorophenyl)methyl]-4,6,7,9-tetrahydro-3-hydroxy-9,9-dimethyl-4-oxo-], the IC50 at HIV-integrase (setting [4]) fell in the range of 2 to 100 nM.

Consider `Cc1cc(Cl)ccc1CNC(=O)c1nc2n(c(=O)c1O)CCOC2(C)C` [Example 272, Pyrimido[2,1-c][1,4]oxazine-2-carboxamide, N-[(4-chloro-2-methylphenyl)methyl]-4,6,7,9-tetrahydro-3-hydroxy-9,9-dimethyl-4-oxo-], for which, on HIV-integrase (setting [4]), the IC50 lay within 2 to 100 nM.

Consider `CC1(C)OCCn2c1nc(C(=O)NCc1c(F)cccc1Cl)c(O)c2=O` [Example 273, Pyrimido[2,1-c][1,4]oxazine-2-carboxamide, N-[(2-chloro-6-fluorophenyl)methyl]-4,6,7,9-tetrahydro-3-hydroxy-9,9-dimethyl-4-oxo-], for which, at HIV-integrase (setting [4]), the IC50 lay in the range of 2 to 100 nM.

With `Cc1ccc(Cl)c(CNC(=O)c2nc3n(c(=O)c2O)CCOC3(C)C)c1F` [Example 274, Pyrimido[2,1-c][1,4]oxazine-2-carboxamide, N-[(6-chloro-2-fluoro-3-methylphenyl)methyl]-4,6,7,9-tetrahydro-3-hydroxy-9,9-dimethyl-4-oxo-], the IC50 at HIV-integrase (setting [4]) is 2 to 100 nM.

With `Cc1ccc(F)c(CNC(=O)c2nc3n(c(=O)c2O)CCOC3(C)C)c1F` [Example 275, Pyrimido[2,1-c][1,4]oxazine-2-carboxamide, N-[(2,6-difluoro-3-methylphenyl)methyl]-4,6,7,9-tetrahydro-3-hydroxy-9,9-dimethyl-4-oxo-], on HIV-integrase (setting [4]), the IC50 lay in the range of 2 to 100 nM.

On to `Cc1ccc(CNC(=O)c2nc3n(c(=O)c2O)CCOC3(C)C)c(F)c1F` [Example 276, Pyrimido[2,1-c][1, 4]oxazine-2-carboxamide, N-[(2,3-difluoro-4-methylphenyl)methyl]-4,6,7,9-tetrahydro-3-hydroxy-9,9-dimethyl-4-oxo-], for which the IC50 at HIV-integrase (setting [4]) lay within 2 to 100 nM.

Regarding `CC1(C)OCCn2c1nc(C(=O)NCc1ccc(Cl)cc1F)c(O)c2=O` [Example 277, Pyrimido[2,1-c][1,4]oxazine-2-carboxamide, N-[(4-chloro-2-fluorophenyl)methyl]-4,6,7,9-tetrahydro-3-hydroxy-9,9-dimethyl-4-oxo-], on HIV-integrase (setting [4]), the IC50 is 2 to 100 nM.

For the compound `Cc1ccc(F)c(CNC(=O)c2nc3n(c(=O)c2O)CCOC3(C)C)c1Cl` [Example 278, Pyrimido[2,1-c][1,4]oxazine-2-carboxamide, N-[(2-chloro-6-fluoro-3-methylphenyl)methyl]-4,6,7,9-tetrahydro-3-hydroxy-9,9-dimethyl-4-oxo-], the IC50 at HIV-integrase (setting [4]) was 2 to 100 nM.

Consider `Cn1ccc2c(CNC(=O)c3nc4n(c(=O)c3O)CCOC4(C)C)cccc21` [Example 279, Pyrimido[2,1-c][1,4]oxazine-2-carboxamide, 4,6,7,9-tetrahydro-3-hydroxy-9,9-dimethyl-N-[(1-methyl-1H-indol-4-yl)methyl]-4-oxo-], for which the IC50 on HIV-integrase (setting [4]) is 2 to 100 nM.

Turning to `CC1(C)OCCCn2c1nc(C(=O)NCc1ccc(F)cc1N1CCC1=O)c(O)c2=O` [Example 280, 6H-Pyrimido[2,1-c][1,4]oxazepine-2-carboxamide, N-[[4-fluoro-2-(2-oxo-1-azetidinyl)phenyl]methyl]-4,7,8,10-tetrahydro-3-hydroxy-10,10-dimethyl-4-oxo-], at HIV-integrase (setting [4]), the IC50 fell in the range of 2 to 100 nM.

As to `COP(=O)(OC)c1cc(F)ccc1CNC(=O)c1nc2n(c(=O)c1O)CCOC2(C)C` [Example 281, Phosphonic acid, [5-fluoro-2-[[[(4,6,7,9-tetrahydro-3-hydroxy-9,9-dimethyl-4-oxopyrimido[2,1-c][1,4]oxazin-2-yl)carbonyl]amino]methyl]phenyl]-, dimethyl ester], the IC50 at HIV-integrase (setting [4]) was 2 to 100 nM.

With `CCOP(=O)(O)c1cc(F)ccc1CNC(=O)c1nc2n(c(=O)c1O)CCOC2(C)C` [Example 282, Phosphonic acid, [5-fluoro-2-[[[(4,6,7,9-tetrahydro-3-hydroxy-9,9-dimethyl-4-oxopyrimido[2,1-c][1,4]oxazin-2-yl)carbonyl]amino]methyl]phenyl]-, monoethyl ester], on HIV-integrase (setting [4]), the IC50 was 2 to 100 nM.

On to `CC1(C)OCCn2c1nc(C(=O)NCc1ccc(F)cc1SCCO)c(O)c2=O` [Example 313, Pyrimido[2,1-c][1,4]oxazine-2-carboxamide, N-[[4-fluoro-2-[(2-hydroxyethyl)thio]phenyl]methyl]-4,6,7,9-tetrahydro-3-hydroxy-9,9-dimethyl-4-oxo-], for which the IC50 at HIV-integrase (Table 2a, read-out: HIV-Integrase Inhibition Activity) was 2 to 100 nM.

Source of the values: patent publication US7491819B1 (priority 2004, dated 2009).
